The numbers were not newly measured in patent US7341711B2, “Porphyrin compounds and their use in high-field MRI” (Guerbet, priority 2004, dated 2008), which cites them from elsewhere.

Several values for one entry are separate records, joined by “and”; a condition that tells them apart may be missing. Identical values can stand only once. Like-named read-outs stand apart in the source and are kept apart here.

As for `O=S(=O)([O-])c1ccc(-c2c3nc(c(-c4ccc(S(=O)(=O)[O-])cc4)c4ccc([n-]4)c(-c4ccc(S(=O)(=O)[O-])cc4)c4ccc([n-]4)c(-c4ccc(S(=O)(=O)[O-])cc4)c4nc2C=C4)C=C3)cc1.[Mn+3]` [MnTPPS4], the relaxivity by setting is: (at 1.5 T) 17 mmol⁻¹ s⁻¹; (field not stated) roughly 10 mmol⁻¹ s⁻¹; (in blood plasma at 0.25 T) 10.7 mmol⁻¹ s⁻¹ and 12.2 mmol⁻¹ s⁻¹.
